From US20240301141A1, “SILICONE POLYMER COMPOUND AND TRANSDERMAL DELIVERY SYSTEM COMPRISING SAME” (UNIVERSITY-INDUSTRY COOPERATION GROUP OF KYUNG HEE …, priority 2021, published 2024)

Assays:
[1] = test system: B16F10 (mouse murine melanoma cell line) cells
Method: Specifically, B16F10 (mouse murine melanoma cell line) cells were transplanted into the left or right thigh (subcutaneously) of the mouse (6-week-old female Balb/c nude) on day 0 to induce melanoma tumor, and then after 10 days later (tumor size=about 200 mm^3), melanoma model mice were divided into 3 groups (5 mice per group), and each group was administered with 100 μL of PBS, SN-38 (3 mM), or C2+SN-38 (C2 compound encapsulated with SN-38 anticancer agent) by topical application on days 10, 12, 13, and 14 ((a) of FIG. 27). In order to determine toxicity and therapeutic effects in melanoma model mice for 16 days, changes in body weight and tumor volume were measured every 2 to 3 days. At the end of the experiment (day 15), the body of each mouse was photographed with a digital camera to determine the shape and size of the tumor, and at the end of the experiment (day 16), the tumor was extracted from the mouse. The extracted tumor tissue (harvested tumor) was photographed with a digital camera, and the size and volume thereof were measured. In addition, for hemolysis analysis, red blood cells purified from the blood sample obtained from the mouse heart were treated with 100 μL of PBS (negative control), SN-38 (3 mM), C2+SN-38, and Triton-X (0.1% (v/v); positive control) at 8% (v/v), respectively, and further incubated at 37° C. for 1 hour, and then the mixture was centrifuged at 4° C. (3000 rpm, 3 min) and the UV/vis absorption peak (492 nm) of the final obtained supernatant was measured at 25° C.

red blood cells = assay: Hemolysis analysis of mouse red blood cells; assay type: cell-based; settings: 37° C., 1 hour, absorption 492 nm
Method: In addition, for hemolysis analysis, a blood sample was obtained from the heart of the mouse anesthetized with isoflurane, and then centrifuged at 4° C. (3000 rpm, 3 min) with cold 1×PBS (1 mL, 3 times) to collect red blood cells. The purified red blood cells were treated with 100 μL of 8% (v/v) each of PBS and the C2 compound and further incubated at 37° C. for 1 hour. The mixture was then collected using centrifugation at 4° C.

mice = assay: Biocompatibility / immunotoxicity in mice (application behind the ears); settings: mouse, in vivo
Method: Specifically, 25 μL each of phosphate-buffered saline (PBS) as a negative control, eugenol (Eug) inducing immunotoxicity as a positive control, and a C2 compound in the PDDS series were applied behind the ears of mice for 3 days, and after 6 days, the change in body weight, the feed intake and water intake, the weight of auricular lymph nodes, the number of lymph node cells, the stimulation index, and the concentrations of histamine and immunoglobulin E in the blood were measured.

[2] = Water contact angle on coated slide glass; assay type: physicochemical; settings: distilled water on coated slide glass
Method: Specifically, a monomer and PDDS series compounds were applied onto a slide glass from Marienfeld using a 100 μL pipette, respectively, and then the monomer and the PDDS series were uniformly coated on the slide glass while the slide glass was tilted left and right. The monomer and the PDDS series were coated for about 1 hour in a fume hood, and then 100 μL each of the monomer and PDDS series were dropped again, and coated without an empty portion of the slide glass by repeating the process two more times. Thereafter, distilled water was dropped on the surface of the coated glass slide using a contact angle meter from Kruss and the contact angles were analyzed.

skin of mouse = assay: Skin penetration efficiency, fluorescence of oil red O in skin sections; assay type: in vivo
Method: Specifically, 100 μL each of oil red O-loaded C2 compound (C2; […]) and oil red O (OR; 100 μL, stock solution: 24 μM in PBS (1% ethanol)) were applied to the skin, and after 24 and 48 hours, the skin tissue was sectioned, and then the fluorescence of oil red O was tracked (excitation: 559 nm, detection: 636±20 nm) using a fluorescence microscope, and quantified and plotted using the Image-J program.
Here, (b, c) of FIG. 25 and (e, f) of FIG. 25 show the fluorescence intensity plot of Oil red O or the C2 compound (C2) loaded with Oil red O along the yellow dotted line in the images of (a) of FIG. 25 and (d) of FIG. 25, respectively.

SMILES: CCc1c2c(nc3ccc(O)cc13)-c1cc3c(c(=O)n1C2)COC(=O)[C@]3(O)CC [SN-38, 7-ethyl-10-hydroxycamptothecin]
- change in body weight ([1]; melanoma xenograft mouse, topical on days 10, 12, 13, 14): no significant change
- average tumor volume of extracted tumor ([1]; tumor extracted day 16): 1689±498.6 mm^3
- tumor growth / tumor size of extracted tumor tissue ([1]; tumor extracted day 16): only slightly reduced tumor growth
- hemolysis rate in red blood cells (red blood cells): severe hemolysis

SMILES: C=CCc1ccc(O)c(OC)c1 [eugenol]
- feed intake and water intake (mice): took less feed and water
- number of lymph node cells (BrdU assay) (mice): statistically significant increase
- stimulation index (mice): statistically significant increase

SMILES: C[Si]1(C)CC[Si](C)(C)O1 [monomer, 2,2,5,5-tetramethyl-2,5-disila-1-oxacyclopentane]
- Contact angle [2]: 69.0±1.2 °

SMILES: Cc1ccc(C)c(N=Nc2cc(C)c(N=Nc3c(O)ccc4ccccc34)cc2C)c1 [oil red O]
- absorption of oil red O in skin tissue (fluorescence) (skin of mouse; 24 hours after application): hardly absorbed into the subcutaneous tissue
- absorption of oil red O in skin tissue (fluorescence) (skin of mouse; 48 hours after application): hardly absorbed into the subcutaneous tissue
